In brackets after ≈: the same amount, converted by molar mass.
Columns and labels:
E. coli DNA gyrase = E. coli DNA gyrase (Escherichia coli, UniProt P0AES4+P0AES6); assay: biochemical; conditions: supercoiling assay
[1] = system: Acinetobacter baumannii ATCC 19606; assay: Minimum Inhibitory Concentration (MIC) in LB media; assay type: cell-based; conditions: Acinetobacter baumannii, ATCC19606;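 also: twofold compound dilutions from DMSO stocks in LB broth microplates, overnight incubation at 37 °C, growth read by absorbance at 600 nm, with DMSO and sterility controls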
E. coli topoisomerase IV = E. coli topoisomerase IV (Escherichia coli, UniProt P0AFI2+P20083); assay: biochemical; conditions: decatenation assay; read-out: E. coli Topo IV IC50
Sequence of E. coli topoisomerase IV (P20083 whole entry): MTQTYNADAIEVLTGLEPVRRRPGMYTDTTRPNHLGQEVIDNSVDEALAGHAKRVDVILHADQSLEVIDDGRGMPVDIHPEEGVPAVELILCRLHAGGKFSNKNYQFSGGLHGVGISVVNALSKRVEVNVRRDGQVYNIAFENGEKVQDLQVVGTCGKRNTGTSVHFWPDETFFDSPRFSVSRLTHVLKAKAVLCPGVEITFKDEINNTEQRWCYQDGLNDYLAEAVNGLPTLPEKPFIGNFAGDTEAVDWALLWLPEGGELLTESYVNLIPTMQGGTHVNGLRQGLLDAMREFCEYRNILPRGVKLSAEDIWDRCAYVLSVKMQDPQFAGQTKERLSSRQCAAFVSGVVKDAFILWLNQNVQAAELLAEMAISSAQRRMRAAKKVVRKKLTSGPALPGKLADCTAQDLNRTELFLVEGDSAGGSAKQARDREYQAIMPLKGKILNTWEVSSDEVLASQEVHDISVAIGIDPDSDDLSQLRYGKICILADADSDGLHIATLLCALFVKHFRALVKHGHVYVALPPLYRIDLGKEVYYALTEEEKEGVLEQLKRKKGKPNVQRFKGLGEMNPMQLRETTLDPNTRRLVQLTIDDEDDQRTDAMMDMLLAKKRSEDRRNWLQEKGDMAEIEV
Sequence of E. coli topoisomerase IV (P0AFI2 whole entry): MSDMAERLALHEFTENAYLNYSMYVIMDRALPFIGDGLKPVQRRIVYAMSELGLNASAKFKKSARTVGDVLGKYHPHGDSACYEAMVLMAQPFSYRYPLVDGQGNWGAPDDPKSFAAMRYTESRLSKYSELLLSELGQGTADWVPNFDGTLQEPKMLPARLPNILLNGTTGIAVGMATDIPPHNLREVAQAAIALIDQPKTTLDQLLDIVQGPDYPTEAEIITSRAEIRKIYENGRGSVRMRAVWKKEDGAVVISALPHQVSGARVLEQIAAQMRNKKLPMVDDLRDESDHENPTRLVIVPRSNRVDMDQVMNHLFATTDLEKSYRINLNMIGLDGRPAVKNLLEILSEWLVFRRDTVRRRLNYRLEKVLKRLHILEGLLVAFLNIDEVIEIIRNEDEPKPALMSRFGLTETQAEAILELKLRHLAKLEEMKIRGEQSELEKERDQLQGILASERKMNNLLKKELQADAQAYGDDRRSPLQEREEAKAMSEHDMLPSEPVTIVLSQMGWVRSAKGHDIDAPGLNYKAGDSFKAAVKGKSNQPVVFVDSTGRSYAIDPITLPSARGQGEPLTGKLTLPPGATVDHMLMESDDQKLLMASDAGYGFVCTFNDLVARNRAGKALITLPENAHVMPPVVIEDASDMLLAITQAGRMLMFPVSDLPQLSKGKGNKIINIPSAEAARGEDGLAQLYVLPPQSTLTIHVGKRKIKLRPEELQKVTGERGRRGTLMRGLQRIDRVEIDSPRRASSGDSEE

[2] = system: Klebsiella pneumoniae ATCC 13883; assay: Minimum Inhibitory Concentration (MIC) in LB media; assay type: cell-based; conditions: Klebsiella pneumoniae, ATCC13883, read-out: Minimum Inhibitory Concentration K. pneumoniae ATCC 13883
Description: (§1) The compounds of Formula (I) are of interest due to their potent antibacterial effects. The ability of the invention compounds disclosed herein to achieve an antibacterial effect may be evaluated with regard to their ability to inhibit the growth of bacterial species like Escherichia coli ATCC 25922, Staphylococcus aureus ATCC 29213, Klebsiella pneumoniae ATCC 13883, Acinetobacter baumannii ATCC 19606, Pseudomonas aeruginosa ATCC 27853, Enterococcus faecalis ATCC 29212 and Enterococcus faecalis ATCC 29212 using an assay based on the following Minimum Inhibitory Concentration (MIC) protocol:
(§2) The medium sterility is checked by incubating at 37° C. for a period of 48 h.
(§3) Bacterial cultures that are stored as glycerol stocks at −80° C. are sub cultured on LB agar plates to obtain isolated colonies. A single colony of each strain is cultured in LB broth. The cultures are incubated at 37 C, 200 rpm till they reach an optical density (OD at 600 nm) of 0.8 to 1. […] Test compounds are dissolved in dimethyl sulfoxide (DMSO) to a stock concentration of 4 mg/ml. A twofold dilution series of this DMSO stock is prepared in a 96 well V bottom microtitre plate from rows A to H. A 3 μL volume of these dilutions are transferred to a 96-well flat bottom microtitre assay plate. Controls to monitor the effects of DMSO and media sterility are included. Each well is inoculated with 150 μL of the above diluted culture. The plates are incubated at 37° C. overnight in a humidified incubator. The following morning, the plates are read using a Spectrophotometer at 600 nm wavelength. […] The antibacterial activity (MIC) determined against representative Gram positive (S. aureus, E. faecalis) and Gram negative (E.coli, -P. aeruginosa and A. baumannii) pathogen were reported Table 1.

[3] = system: Pseudomonas aeruginosa ATCC 27853; assay: Minimum Inhibitory Concentration (MIC) in LB media; assay type: cell-based; conditions: Pseudomonas aeruginosa, ATCC27853, read-out: Minimum Inhibitory Concentration P. aeruginosa ATCC 27853
Description: as §1, §2, §3

[4] = system: Staphylococcus aureus ATCC 29213; assay: Minimum Inhibitory Concentration (MIC) in LB media; assay type: cell-based; conditions: Staphylococcus aureus, ATCC29213, read-out: Minimum Inhibitory Concentration S. aureus ATCC 29213
Description: as §1, §2, §3

[5] = system: Escherichia coli ATCC 25922; assay: Minimum Inhibitory Concentration (MIC) in LB media; assay type: cell-based; conditions: Escherichia coli, ATCC25922, read-out: Minimum Inhibitory Concentration E. coli ATCC 25922
Description: as §1, §2, §3

[6] = system: Enterococcus faecalis ATCC 29212; assay: Minimum Inhibitory Concentration (MIC) in LB media; assay type: cell-based; conditions: Enterococcus faecalis, ATCC29212, read-out: Minimum Inhibitory Concentration E. faecalis ATCC 29212
Description: as §1, §2, §3

Row | SMILES | MIC [1] | MIC [2] | MIC [3] | MIC [4] | MIC [5] | MIC [6] | IC50 (E. coli DNA gyrase) | IC50 (E. coli topoisomerase IV)
1 | Cn1c(=O)cc(CO)c2ccc(F)c(CCNC[C@H]3CN(c4ccc5c(n4)NC(=O)CO5)C(=O)O3)c21 [Example 12, (S)-6-(5-(((2-(7-fluoro-4-(hydroxymethyl)-1-methyl-2-oxo-1,2-dihydroquinolin-8-yl)ethyl)amino)methyl)-2-oxooxazolidin-3-yl)-2H-pyrido[3,2-b][1,4]oxazin-3(4H)-one] | 1 µg/mL (≈ 2.01 µM) | 0.5 µg/mL (≈ 1.01 µM) | 1 µg/mL (≈ 2.01 µM) | 0.25 µg/mL (≈ 0.503 µM) | 0.25 µg/mL (≈ 0.503 µM) | 0.5 µg/mL (≈ 1.01 µM) | < 100 nM | 176 nM
2 | Cn1c(=O)cnc2ccc(F)c(CCNC[C@H]3CN(c4ncc5c(n4)NC(=O)CO5)C(=O)O3)c21 [Example 17, (S)-2-(5-(((2-(6-fluoro-4-methyl-3-oxo-3,4-dihydroquinoxalin-5-yl)ethyl)amino)methyl)-2-oxooxazolidin-3-yl)-6H-pyrimido[5,4-b][1,4]oxazin-7(8H)-one] | 1 µg/mL (≈ 2.13 µM) | 0.25 µg/mL (≈ 0.533 µM) | 2 µg/mL (≈ 4.26 µM) | 0.125 µg/mL (≈ 0.266 µM) | 0.125 µg/mL (≈ 0.266 µM) | 0.25 µg/mL (≈ 0.533 µM) |  | 
3 | Cc1cc(=O)n(C)c2c(CCNC[C@H]3CN(c4cnc5c(n4)NC(=O)CO5)C(=O)O3)c(F)ccc12 [Example 28, (S)-6-(5-(((2-(7-fluoro-1,4-dimethyl-2-oxo-1,2-dihydroquinolin-8-yl)ethyl)amino)methyl)-2-oxooxazolidin-3-yl)-2H-pyrazino[2,3-b][1,4]oxazin-3(4H)-one] | 0.125 µg/mL (≈ 0.259 µM) | 0.06 µg/mL (≈ 0.124 µM) | 0.5 µg/mL (≈ 1.04 µM) | ≤ 0.015 µg/mL | 0.06 µg/mL (≈ 0.124 µM) | 0.06 µg/mL (≈ 0.124 µM) |  | 
4 | Cn1c(=O)ccc2ncc(F)c(CCNC[C@H]3CN(c4cnc5c(n4)NC(=O)CO5)C(=O)O3)c21 [Example 29, (S)-6-(5-(((2-(3-fluoro-5-methyl-6-oxo-5,6-dihydro-1,5-naphthyridin-4-yl)ethyl)amino)methyl)-2-oxooxazolidin-3-yl)-2H-pyrazino[2,3-b][1,4]oxazin-3(4H)-one] | 0.5 µg/mL (≈ 1.07 µM) | 0.125 µg/mL (≈ 0.266 µM) | 0.5 µg/mL (≈ 1.07 µM) | 0.03 µg/mL (≈ 0.0639 µM) | 0.125 µg/mL (≈ 0.266 µM) | 0.125 µg/mL (≈ 0.266 µM) |  | 
5 | Cn1c(=O)cnc2ccc(F)c(CCNC[C@H]3CN(c4cnc5c(n4)NC(=O)CO5)C(=O)O3)c21 [Example 30, (S)-6-(5-(((2-(6-fluoro-4-methyl-3-oxo-3,4-dihydroquinoxalin-5-yl)ethyl)amino)methyl)-2-oxooxazolidin-3-yl)-2H-pyrazino[2,3-b][1,4]oxazin-3(4H)-one] | 0.06 µg/mL (≈ 0.128 µM) | 0.06 µg/mL (≈ 0.128 µM) | 0.25 µg/mL (≈ 0.533 µM) | 0.03 µg/mL (≈ 0.0639 µM) | 0.06 µg/mL (≈ 0.128 µM) | 0.125 µg/mL (≈ 0.266 µM) |  | 

Further lines, with some results ahead:

Row | MIC [1] | MIC [2] | MIC [3] | MIC [4] | MIC [5] | MIC [6] | SMILES | IC50 (E. coli DNA gyrase) | IC50 (E. coli topoisomerase IV)
6 | 0.125 µg/mL (≈ 0.244 µM) | 0.125 µg/mL (≈ 0.244 µM) | 1 µg/mL (≈ 1.95 µM) | 0.015 µg/mL (≈ 0.0293 µM) | 0.06 µg/mL (≈ 0.117 µM) | 0.25 µg/mL (≈ 0.488 µM) | COCCn1c(=O)ccc2ccc(F)c(CCNC[C@H]3CN(c4cnc5c(n4)NC(=O)CO5)C(=O)O3)c21 [Example 21, (S)-6-(5-(((2-(7-fluoro-1-(2-methoxyethyl)-2-oxo-1,2-dihydroquinolin-8-yl)ethyl)amino)methyl)-2-oxooxazolidin-3-yl)-2H-pyrazino[2,3-b][1,4]oxazin-3(4H)-one] |  | 
7 | 0.03 µg/mL (≈ 0.0622 µM) | 0.03 µg/mL (≈ 0.0622 µM) | 0.5 µg/mL (≈ 1.04 µM) | ≤ 0.015 µg/mL | 0.03 µg/mL (≈ 0.0622 µM) | 0.03 µg/mL (≈ 0.0622 µM) | CCn1c(=O)ccc2ccc(F)c(CCNC[C@H]3CN(c4cnc5c(n4)NC(=O)CO5)C(=O)O3)c21 [Example 26, (S)-6-(5-(((2-(1-ethyl-7-fluoro-2-oxo-1,2-dihydroquinolin-8-yl)ethyl)amino)methyl)-2-oxooxazolidin-3-yl)-2H-pyrazino[2,3-b][1,4]oxazin-3(4H)-one] |  | 
8 | 0.06 µg/mL (≈ 0.121 µM) | 0.125 µg/mL (≈ 0.252 µM) | 0.5 µg/mL (≈ 1.01 µM) | 0.015 µg/mL (≈ 0.0302 µM) | 0.03 µg/mL (≈ 0.0604 µM) | 0.06 µg/mL (≈ 0.121 µM) | CCn1c(=O)ccc2ccc(F)c(CCNCC[C@H]3CN(c4cnc5c(n4)NC(=O)CO5)C(=O)O3)c21 [Example 27, (S)-6-(5-(2-((2-(1-ethyl-7-fluoro-2-oxo-1,2-dihydroquinolin-8-yl)ethyl)amino)ethyl)-2-oxooxazolidin-3-yl)-2H-pyrazino[2,3-b][1,4]oxazin-3(4H)-one] |  | 

From US10912780B2, “Heterocyclic compounds useful as anti-bacterial agents and method for production thereof” (Bugworks Research, Inc., priority 2017, dated 2021)
